Assay results as given in ChEMBL document CHEMBL6120976, “Derivatization of Microcystins Can Increase Target Inhibition while Reducing Cellular Uptake” (J Nat Prod, 2025).
pIC50: −log10 of the molar value. Numbered stars: 1 amine (or outer) side, 2 acyl side, 3 side chain; on linkers, the order of the positions; unused ones are H or OH. Bridge positions count the residues as written; N and C are the ends. Square brackets hold non-standard residues; d marks the D form. Peptide text beside a SMILES is read from it. Adda = CO[C@@H](Cc1ccccc1)[C@@H](C)/C=C(C)/C=C/[C@H](N[*:1])[C@H](C)C(=O)[*:2]; dAsp(3S-Me) = C[C@H](C(=O)[*:3])[C@@H](N[*:1])C(=O)[*:2]; d(γGlu) = O=C(O)[C@@H](CCC(=O)[*:2])N[*:1]; NMeDha = C=C(NC)C(=O)O

What was measured:
[1] = system: OATP1B3; experiment: Cytotoxicity against sodium butyrate-treated HEK293 cells transfected with OATP1B3 incubated for 48 hrs by absorbance based assay; format: toxicity, cell-based; details: human
[2] = Selectivity index, ratio of EC50 for cytotoxicity against sodium butyrate-treated HEK293 cells transfected with OATP1B3 to IC50 for inhibition of PP1 (unknown origin); format: cell-based
[3] = Selectivity index, ratio of EC50 for cytotoxicity against sodium butyrate-treated HEK293 cells transfected with OATP1B1 to IC50 for inhibition of PP1 (unknown origin); format: cell-based
[4] = Selectivity index, ratio of EC50 for cytotoxicity against sodium butyrate-treated HEK293 cells transfected with OATP1B1 to EC50 for cytotoxicity against sodium butyrate-treated HEK293 cells transfected with OATP1B3; format: cell-based
[5] = system: OATP1B1; experiment: Cytotoxicity against sodium butyrate-treated HEK293 cells transfected with OATP1B1 incubated for 48 hrs by absorbance based assay; format: toxicity, cell-based; details: human
[6] = Inhibition of PP1 (unknown origin) incubated for 2 hrs by absorbance based assay; set-up: species or system Homo sapiens

C=C1C(=O)N[C@H](C)C(=O)N[C@@H](CC(C)C)C(=O)N[C@@H](C(=O)O)[C@H](C)C(=O)N[C@@H](CCCNC(=N)N)C(=O)N[C@@H](/C=C/C(C)=C/[C@H](C)[C@H](Cc2ccccc2)OC)[C@H](C)C(=O)N[C@@H](C(=O)O)CCC(=O)N1C [MICROCYSTIN-LR] (R[Adda][d(γGlu)][NMeDha][dA]L[dAsp(3S-Me)]-OH; lactam N-7)
EC50 at 48 h [1]: 9.3 nM
Ratio [2]: 1.7
Ratio [3]: 1.6
Ratio EC50 [4]: 1
EC50 at 48 h [5]: 8.8 nM
pIC50 [6]: 8.26
